From patent US20190308988A1, “OPIOID RECEPTOR ANTAGONIST PRODRUGS” (Nirsum Laboratories, Inc., priority 2017, published 2019) come the findings set out here.

One data set addresses T1, DOR (Homo sapiens, UniProt P41143).
T1 construct: expressed in transfected cells
Put plainly: Opioid receptor binding assay, DOR ([3H]-DADLE). The method, then: (§1) Receptor binding assays were performed to assess the ability of compounds to inhibit binding to radiolabeled ligand.
(§2) The stable cell lines were established and prepared cell membrane obtained using these cell lines.
(§3) 1) Transfer 1 μl of specified concentration compound to assay plate according to the plate map for nonspecific binding. Transfer 1 μl of DMSO to assay plate according to plate map for total binding. 2) Follow the plate map. Dispense 99 μl of membrane stocks into the plate. 3) Add 100 μl of radio ligand. 4) Seal the plates. Incubate at RT for 1 hour. 5) Soak the Unifilter-96 GF/C filter plates with 50 μl of 0.3% PEI per well for at least 0.5 hour at room temperature. 6) When binding assays are completed, filter the reaction mixture through GF/C plates using Perkin Elmer Filtermate Harvester, and then wash each plate for 4 times with cold wash buffer. 7) Dry the filter plates for 1 hour at 50 degrees. 8) After drying, seal the bottom of the filter plate wells using Perkin Elmer Unifilter-96 backing seal tape. Add 50 μl of Perkin Elmer Microscint 20 cocktail. Seal top of filter plates with Perkin Elmer TopSeal-A sealing film. 9) Count ^3H trapped on filter using Perkin Elmer MicroBeta2 Reader second day. 10) Analyze the data with GraphPad Prism 5. Calculate the “Inhibition [% Control]” using the equation: % Inh=(1−Background subtracted Assay value/Background subtracted HC value)*100.

Data set [1] can be described thus: Solubility determination in oil (Table 10). The note with it: thermodynamic from solid; for solubility at 24 h: 25 °C, Obs. Temp. 25 °C; for solubility thermodynamic / solubility: 40 °C, Obs. Temp. 40 °C; for solubility thermodynamic: water, Equilibrium solubility: Water. The procedure:
A known amount of test substance (˜40 mg) was weighed into the vial, 100 μL of oil was added and heated to 60° C. and then system was slurried to reach equilibrium. […] Extra oil was added into the vial once compound precipitated out and then the system was re-equilibrated at 1000 rpm at room temperature (25° C.). Final concentration was determined by HPLC method as described below in Table 6a and 6b.

In the next data set the target is T2, KOR (Homo sapiens, UniProt P41145).
T2 construct: expressed in transfected cells
Put plainly: Opioid receptor binding assay, KOR ([3H]Diprenorphine). The method, then:
as §1, §2, §3

In a further data set the target is T3, MOR (Homo sapiens, UniProt P35372).
T3 construct: expressed in transfected cells
The experiment in a line: Opioid receptor binding assay, MOR ([3H]DAMGO). The procedure: as §1, §2, §3

Data set [2] can be described thus: Dog pharmacokinetic studies, deep intramuscular administration. The data set is classed as in vivo, Beagle dogs. The note with it: for AUC(0-inf) / half-life: Beagle, dog, plasma, im, Cottonseed + 1% Benzyl Alcohol; for AUC(0-inf): read-out: AUC0-inf (ng · h/mL) prodrug; for half-life: read-out: Half-life t1/2 (hour) prodrug (converted). The procedure: The purpose of this study is to determine the pharmacokinetics of test compounds in plasma, following deep intramuscular administration to Beagle dogs (n=3, unless otherwise specified).
The dose formulation (concentration—400 mg base equivalents/ml in sesame oil+1% benzyl alcohol, unless otherwise specified) was administered via deep intramuscularly (unless otherwise specified). The injection vehicle was also dosed via deep intramuscular route (unless otherwise specified) on contralateral site of each animal at study initiation. The animals were sedated with Propofol at 6 mg/kg via IV administration. Following sedation hair was carefully removed from around the injection site and the area gently cleaned. Care will be taken to avoid irritating skin during shaving and cleaning the injection site. Then dogs will be dosed with deep IM administration. At least 2.5 cm depth from the surface into the central aspect of the quadriceps or biceps femoris muscle, by angling the needle toward the femur. If the needle hits the femur, simply draws back slightly and then inject. The dose volume will be determined by the animals' body weight collected on the morning of dosing day. For repeated administration, the injection sites may be rotated to minimize tissue injury.
Blood samples were collected from a peripheral vessel from restrained, non-sedated animals per sampling time point.
Approximately 0.8 mL blood will be collected at each time point.
Each collected blood sample was centrifuged for 4 minutes at 4° C. and 10000 rpm for plasma collection. Plasma was collected and transferred into a pre-labeled PP tube in dry ice at each time point and precipitated immediately using ACN at a ratio of 1:4 (plasma:ACN).
LC-MS/MS methods for the quantitative determination of test compound in biological matrix were developed. […] The sample analysis was performed concurrently with a set of calibration standards and two sets of QC samples using the LC-MS/MS method.
Plasma concentration versus time data was analyzed by non-compartmental approaches using the Phoenix WinNonlin 6.3 software program. Cmax, Tmax, T1/2, AUC(0-t), AUC(0-inf), MRT(0-t), MRT(0-inf) and graphs of plasma concentration versus time profile were prepared.

Where [3] appears, read: oil or lipid, Approximate Solubility in Excipient: Cottonseed oil, Heating Temp. 60 °C.
Setting [4] is: oil or lipid, Approximate Solubility in Excipient: Sesame oil, Heating Temp. 60 °C.
Setting [5] is: IM 96 mg/kg, Cottonseed oil + 1% Benzyl Alcohol.

≈ marks a conversion by molar mass, not a printed value. Read-outs that look alike come from different tables or passages of the source. A value given as a limit tells only on which side of the number the result lay.

T1 sequence (P41143 whole entry): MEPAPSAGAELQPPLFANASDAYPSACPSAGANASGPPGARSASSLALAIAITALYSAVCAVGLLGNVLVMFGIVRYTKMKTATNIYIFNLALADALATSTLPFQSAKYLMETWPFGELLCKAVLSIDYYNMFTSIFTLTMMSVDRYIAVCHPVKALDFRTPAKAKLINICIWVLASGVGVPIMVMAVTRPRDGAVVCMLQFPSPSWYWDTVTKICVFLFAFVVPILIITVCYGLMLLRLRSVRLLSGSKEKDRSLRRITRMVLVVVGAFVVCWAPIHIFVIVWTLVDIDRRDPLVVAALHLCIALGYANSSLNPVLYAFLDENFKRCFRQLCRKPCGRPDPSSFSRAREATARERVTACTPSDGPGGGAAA
T3 sequence (P35372 whole entry): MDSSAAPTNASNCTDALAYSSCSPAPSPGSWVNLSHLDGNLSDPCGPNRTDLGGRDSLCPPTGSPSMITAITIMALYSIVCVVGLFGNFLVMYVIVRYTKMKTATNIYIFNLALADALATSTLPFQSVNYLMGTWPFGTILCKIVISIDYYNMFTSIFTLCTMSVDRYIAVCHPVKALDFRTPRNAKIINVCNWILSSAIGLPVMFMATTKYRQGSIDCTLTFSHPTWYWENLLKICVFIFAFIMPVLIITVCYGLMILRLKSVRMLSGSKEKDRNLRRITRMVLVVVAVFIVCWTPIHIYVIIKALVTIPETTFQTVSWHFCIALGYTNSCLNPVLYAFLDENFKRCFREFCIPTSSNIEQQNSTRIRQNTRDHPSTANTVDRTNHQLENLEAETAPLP
T2 sequence (P41145 whole entry): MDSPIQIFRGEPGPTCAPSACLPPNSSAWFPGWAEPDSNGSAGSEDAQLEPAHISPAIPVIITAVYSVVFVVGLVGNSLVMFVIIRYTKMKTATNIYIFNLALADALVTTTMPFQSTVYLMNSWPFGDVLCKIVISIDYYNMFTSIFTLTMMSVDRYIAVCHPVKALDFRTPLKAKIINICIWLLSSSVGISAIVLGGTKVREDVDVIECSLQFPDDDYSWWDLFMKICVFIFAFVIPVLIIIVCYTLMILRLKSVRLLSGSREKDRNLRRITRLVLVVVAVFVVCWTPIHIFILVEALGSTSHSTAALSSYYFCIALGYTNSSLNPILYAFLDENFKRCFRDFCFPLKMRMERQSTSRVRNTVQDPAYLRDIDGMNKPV

Consider `C=C1CC[C@@]2(O)C3Cc4ccc(OC(=O)OCCCCCCCCCCCCCCC)c5c4[C@@]2(CCN3CC2CC2)[C@H]1O5` [Compound 32, (4aS,7aS,12bS)-3-(cyclopropylmethyl)-4a-hydroxy-7-methylene-2,3,4,4a,5,6,7,7a-octahydro-1H-4,12-methanobenzofuro[3,2-e]isoquinolin-9-yl pentadecyl carbonate], for which the values for the IC50 at DOR, on KOR and at MOR were > 10000 nM, 2120 nM and 17.4 nM, respectively. Moreover, the solubility at 24 h is > 396 mg/mL in data set [1] (setting [3]) and > 410 mg/mL in data set [1] (setting [4]). The molecule also registered a solubility (thermodynamic) in data set [1] (Heating Temp. 40 °C) of 0.0328 mg/mL (≈ 0.0552 mM).

Take `C=C1CC[C@@]2(O)C3Cc4ccc(OCOC(=O)CCCCCCCCCCCCC)c5c4[C@@]2(CCN3CC2CC2)[C@H]1O5` [Compound 45, (((4aS,7aS,12bS)-3-(cyclopropylmethyl)-4a-hydroxy-7-methylene-2,3,4,4a,5,6,7,7a-octahydro-1H-4,12-methanobenzofuro[3,2-e]isoquinolin-9-yl)oxy)methyl tetradecanoate]: the IC50 at DOR turned out to be 68.4 nM; at KOR it was 5.5 nM; on MOR it was 2 nM. The results for the solubility at 24 h in data set [1] (setting [3]) and in data set [1] (setting [4]) were > 402 mg/mL and 267 to 288 mg/mL (≈ 460 to 497 mM), respectively. In addition, in data set [1] (Heating Temp. 40 °C), the solubility (thermodynamic) is < 0.001 mg/mL. Moreover, the AUC(0-inf) in data set [2] (30 mg/kg, IM 30 mg/kg) turned out to be 100 ng·h/mL; in data set [2] (48 mg/kg, IM 48 mg/kg), 267 ng·h/mL. Moreover, the half-life is 151 h in data set [2] (30 mg/kg, IM 30 mg/kg) and 171 h in data set [2] (48 mg/kg, IM 48 mg/kg). Also, the “AUC0-inf (ng · h/mL) prodrug” value in data set [2] (setting [5]) is recorded as “None”. Also, the “Half-life t1/2 (hour) prodrug” value in data set [2] (setting [5]) is listed as “None”.

Turning to `C=C1CC[C@@]2(O)C3Cc4ccc(OCOC(=O)CCCCCCCCCCC)c5c4[C@@]2(CCN3CC2CC2)[C@H]1O5` [Compound 44, (((4aS,7aS,12bS)-3-(cyclopropylmethyl)-4a-hydroxy-7-methylene-2,3,4,4a,5,6,7,7a-octahydro-1H-4,12-methanobenzofuro[3,2-e]isoquinolin-9-yl)oxy)methyl dodecanoate], the half-maximal inhibitory concentration (IC50) at DOR is 190 nM; on KOR, 18.4 nM; on MOR, 3.03 nM. The solubility at 24 h in data set [1] (setting [3]) was > 407 mg/mL; in data set [1] (setting [4]) it was 208 to 231 mg/mL (≈ 377 to 419 mM). Further, the solubility (thermodynamic) in data set [1] (Heating Temp. 40 °C) was < 0.001 mg/mL.

Regarding `C=C1CC[C@@]2(O)C3Cc4ccc(OC(=O)OCCCCCCCCCCCCC)c5c4[C@@]2(CCN3CC2CC2)[C@H]1O5` [Compound 30, (4aS,7aS,12bS)-3-(cyclopropylmethyl)-4a-hydroxy-7-methylene-2,3,4,4a,5,6,7,7a-octahydro-1H-4,12-methanobenzofuro[3,2-e]isoquinolin-9-yl tridecyl carbonate], the IC50 on DOR is 1850 nM; at KOR, 88.7 nM; on MOR, 9 nM. The solubility at 24 h is 252 to 404 mg/mL (≈ 446 to 714 mM) in data set [1] (setting [3]) and 253 to 399 mg/mL (≈ 446 to 704 mM) in data set [1] (setting [4]). For the same molecule, in data set [1] (Heating Temp. 40 °C), the thermodynamic solubility is < 0.001 mg/mL.

For the molecule `C=C1CC[C@@]2(O)C3Cc4ccc(OCOC(=O)OCCCCCCCCCCCCCC)c5c4[C@@]2(CCN3CC2CC2)[C@H]1O5` [Compound 25, (((4aS,7aS,12bS)-3-(cyclopropylmethyl)-4a-hydroxy-7-methylene-2,3,4,4a,5,6,7,7a-octahydro-1H-4,12-methanobenzofuro[3,2-e]isoquinolin-9-yl)oxy)methyl tetradecyl carbonate], the IC50 turned out to be 9540 nM at DOR, 889 nM at KOR and 5 nM on MOR. In addition, the solubility at 24 h in data set [1] (setting [3]) is > 414 mg/mL; in data set [1] (setting [4]), > 404 mg/mL. Besides, the solubility (thermodynamic) in data set [1] (Heating Temp. 40 °C) is < 0.001 mg/mL.

As for `CCCCCCCCOC(=O)Oc1ccc2c3c1O[C@H]1C(=O)CC[C@@]4(O)C(C2)N(CC2CC2)CC[C@]314` [Compound 23, (4aS,7aR,12bS)-3-(cyclopropylmethyl)-4a-hydroxy-7-oxo-2,3,4,4a,5,6,7,7a-octahydro-1H-4,12-methanobenzofuro[3,2-e]isoquinolin-9-yl octyl carbonate], the IC50 at DOR amounted to 107 nM; on KOR, 11.7 nM; at MOR, 2.8 nM. For the same molecule, the values for the solubility at 24 h in data set [1] (setting [3]) and in data set [1] (setting [4]) were > 408 mg/mL and > 424 mg/mL, respectively. The solubility was > 412 mg/mL in data set [1] (setting [3]) and > 419 mg/mL in data set [1] (organic solvent or mixture, Approximate Solubility in Excipient: Ethanol, Heating Temp. 60 °C). Further, the solubility (thermodynamic) in data set [1] (Heating Temp. 60 °C) stood at 0.0094 mg/mL (≈ 0.0189 mM).

In general, IC50 refers to the concentration that inhibits the measured activity by half. The solubility is the concentration that dissolves in the medium under given conditions. For orientation: solubility (thermodynamic) means the concentration in solution at equilibrium with solid.
